Results published in ChEMBL document CHEMBL1136564, “Sordaricin antifungal agents” (2003).
≈ marks a conversion by molar mass, not a printed value. Calls of active or inactive are those of the source. No cut-off for these calls is given here.

What was measured:
HEp-2 [1] = experiment: In vitro cytotoxic concentration against Hep2 cells.; format: functional; settings: Homo sapiens
[2] = In vitro therapeutic index (calculated as CC50/MIC (Candida albicans)).; format: functional
Candida albicans = experiment: Minimum inhibitory concentration to inhibit 90 to 100% visible growth of Candida albicans; format: functional
Nakaseomyces glabratus = experiment: Minimum inhibitory concentration required to inhibit 90 to 100% visible growth of Candida glabrata; format: functional
HEp-2 [3] = experiment: Cytotoxic concentration against Hep2 cells; activation observed, but IC50 could not be determined; format: functional, cell-based; settings: Homo sapiens

Compound | CC50 (HEp-2 [1]) [µg/mL] | Therapeutic index [2] | MIC (Candida albicans) [µg/mL] | MIC (Nakaseomyces glabratus) [µg/mL] | CC50 (HEp-2 [3])
CCCCC#CC(O)C12C[C@@H]3[C@H](C)CC[C@H]3C3(C=O)CC1C=C(C(C)C)[C@@]23C(=O)O (stereo partly drawn) | 18.3 (≈ 44.4 µM) | 2.3 | 8 (≈ 19.4 µM) | 32 (≈ 77.6 µM) | 
CC(C)C1=CC2CC3(C=O)[C@@H]4CC[C@@H](C)[C@H]4CC2(C(O)CCC2CCCCC2)[C@]13C(=O)O (stereo partly drawn) | 1.5 (≈ 3.39 µM) | 3 | 0.5 (≈ 1.13 µM) | 16 (≈ 36.1 µM) | 
CC(C)C1=CC2CC3(C=O)[C@@H]4CC[C@@H](C)[C@H]4CC2(C(O)CC2CCCCC2)[C@]13C(=O)O (stereo partly drawn) | 3.1 (≈ 7.23 µM) | 1.6 | 2 (≈ 4.67 µM) | 8 (≈ 18.7 µM) | 
CCCCCCC(=O)C12C[C@@H]3[C@H](C)CC[C@H]3C3(C=O)CC1C=C(C(C)C)[C@@]23C(=O)O | 1.5 (≈ 3.62 µM) | 6 | 0.25 (≈ 0.603 µM) | 4 (≈ 9.65 µM) | 
CC(C)CCCCC(=O)C12C[C@@H]3[C@H](C)CC[C@H]3C3(C=O)CC1C=C(C(C)C)[C@@]23C(=O)O | 2.5 (≈ 5.83 µM) | 5 | 0.5 (≈ 1.17 µM) | > 128 | 
CC(C)C1=CC2CC3(C=O)[C@@H]4CC[C@@H](C)[C@H]4CC2(C(=O)CC2CCCCC2)[C@]13C(=O)O | 1.8 (≈ 4.22 µM) | 3.6 | 0.5 (≈ 1.17 µM) | 1 (≈ 2.34 µM) | 
CC(C)C1=CC2CC3(C=O)[C@@H]4CC[C@@H](C)[C@H]4CC2(C(O)C#CCC2CCCC2)[C@]13C(=O)O (stereo partly drawn) | 14.2 (≈ 32.4 µM) | 14.2 | 1 (≈ 2.28 µM) | 16 (≈ 36.5 µM) | 
CC(C)C1=CC2CC3(C=O)[C@@H]4CC[C@@H](C)[C@H]4CC2(C(=O)C#Cc2ccccc2)[C@]13C(=O)O | > 12 | 0.09 | > 128 | 16 (≈ 37.2 µM) | 
CC(C)CCCC#CC(=O)C12C[C@@H]3[C@H](C)CC[C@H]3C3(C=O)CC1C=C(C(C)C)[C@@]23C(=O)O | 1.4 (≈ 3.19 µM) | > 23.3 | < 0.06 | 0.25 (≈ 0.57 µM) | 
CC(C)CCC(=O)C12C[C@@H]3[C@H](C)CC[C@H]3C3(C=O)CC1C=C(C(C)C)[C@@]23C(=O)O | 2.5 (≈ 6.24 µM) | < 0.02 | > 128 | 1 (≈ 2.5 µM) | 
CC(C)C1=CC2CC3(C=O)[C@@H]4CC[C@@H](C)[C@H]4CC2(C(=O)CCC2CCCCC2)[C@]13C(=O)O | 1.8 (≈ 4.09 µM) | 3.6 | 0.5 (≈ 1.13 µM) | > 128 | 
CC(C)CCCCC(O)C12C[C@@H]3[C@H](C)CC[C@H]3C3(C=O)CC1C=C(C(C)C)[C@@]23C(=O)O (stereo partly drawn) | 1.2 (≈ 2.79 µM) | 1.2 | 1 (≈ 2.32 µM) | 32 (≈ 74.3 µM) | 
CCCCCCCCCCCCCCCCC(O)C12C[C@@H]3[C@H](C)CC[C@H]3C3(C=O)CC1C=C(C(C)C)[C@@]23C(=O)O (stereo partly drawn) |  |  | > 128 | > 128 | 
CC(C)C1=CC2CC3(C=O)[C@@H]4CC[C@@H](C)[C@H]4CC2(C(O)C#CCC2CCCCC2)[C@]13C(=O)O (stereo partly drawn) | 10.7 (≈ 23.6 µM) | 42.8 | 0.25 (≈ 0.552 µM) | 4 (≈ 8.84 µM) | 
CC(C)C1=CC2CC3(C=O)C4CC[C@@H](C)C4CC2(CCOC(=O)c2ccc(Cl)cc2)C13C(=O)O (stereo partly drawn) |  |  | 4 (≈ 8.25 µM) | > 128 | 
CC(C)CCC(O)C12C[C@@H]3[C@H](C)CC[C@H]3C3(C=O)CC1C=C(C(C)C)[C@@]23C(=O)O (stereo partly drawn) |  |  | 16 (≈ 39.7 µM) | 64 (≈ 159 µM) | inactive
CC(C)CCOCCC12CC3C(CC[C@H]3C)C3(C=O)CC1C=C(C(C)C)C32C(=O)O (stereo partly drawn) |  |  | 2 (≈ 4.8 µM) | 64 (≈ 154 µM) | 

Compound | CC50 (HEp-2 [1]) [µg/mL] | Therapeutic index [2] | MIC (Candida albicans) [µg/mL] | MIC (Nakaseomyces glabratus) [µg/mL] | CC50 (HEp-2 [3])
CC(C)C1=CC2CC3(C=O)C4CC[C@@H](C)C4CC2(CCOC(=O)c2ccc([N+](=O)[O-])cc2Cl)C13C(=O)O (stereo partly drawn) |  |  | 128 (≈ 242 µM) | > 128 | 
CCCCC#CC(=O)C12C[C@@H]3[C@H](C)CC[C@H]3C3(C=O)CC1C=C(C(C)C)[C@@]23C(=O)O | 3.3 (≈ 8.04 µM) | > 55 | < 0.06 | 0.5 (≈ 1.22 µM) | 
CCCCCCC(O)C12C[C@@H]3[C@H](C)CC[C@H]3C3(C=O)CC1C=C(C(C)C)[C@@]23C(=O)O (stereo partly drawn) | 2.4 (≈ 5.76 µM) | 0.6 | 4 (≈ 9.6 µM) | 32 (≈ 76.8 µM) | 
CC(C)C1=CC2CC3(C=O)C4CC[C@@H](C)C4CC2(CCOC(=O)C2CCC2)C13C(=O)O (stereo partly drawn) |  |  | 0.5 (≈ 1.17 µM) | 8 (≈ 18.7 µM) | 
CC(C)C1=CC2CC3(C=O)[C@@H]4CC[C@@H](C)[C@H]4CC2(C(O)CCc2ccccc2)[C@]13C(=O)O (stereo partly drawn) |  |  | > 128 | > 128 | 
CC(C)C1=CC2CC3(C=O)C4CC[C@@H](C)C4CC2(CCOC(=O)c2ccc(Cl)nc2)C13C(=O)O (stereo partly drawn) |  |  | 4 (≈ 8.23 µM) | > 128 | 
CC(C)C1=CC2CC3(C=O)C4CC[C@@H](C)C4CC2(CCOC(=O)c2ccc(I)cc2)C13C(=O)O (stereo partly drawn) |  |  | 2 (≈ 3.47 µM) | > 128 | 
CC(=O)OCC(=O)OCCC12CC3C(CC[C@H]3C)C3(C=O)CC1C=C(C(C)C)C32C(=O)O (stereo partly drawn) |  |  | > 128 | > 128 | 
CC(C)C1=CC2CC3(C=O)[C@@H]4CC[C@@H](C)[C@H]4CC2(C(=O)C#CCC2CCCCC2)[C@]13C(=O)O | 1.4 (≈ 3.11 µM) | > 23.3 | < 0.06 | 0.5 (≈ 1.11 µM) | 
CC(C)CCC#CC(O)C12C[C@@H]3[C@H](C)CC[C@H]3C3(C=O)CC1C=C(C(C)C)[C@@]23C(=O)O (stereo partly drawn) | 15.8 (≈ 37 µM) | 15.8 | 1 (≈ 2.34 µM) | 8 (≈ 18.8 µM) | 
CC(C)C1=CC2CC3(C=O)C4CC[C@@H](C)C4CC2(CCOC(=O)CSc2ccccc2)C13C(=O)O (stereo partly drawn) |  |  | 0.5 (≈ 1.01 µM) | 32 (≈ 64.4 µM) | 
CC(C)C1=CC2CC3(C=O)C4CC[C@@H](C)C4CC2(CCOC(=O)c2cnc4ccccc4c2)C13C(=O)O (stereo partly drawn) |  |  | 4 (≈ 7.97 µM) | > 128 | 
CC(C)C1=CC2CC3(C=O)C4CC[C@@H](C)C4CC2(CCOC(=O)c2cccc(C(=O)O)n2)C13C(=O)O (stereo partly drawn) |  |  | > 128 | > 128 | 
CC(C)C1=CC2CC3(C=O)[C@@H]4CC[C@@H](C)[C@H]4CC2(C(=O)C#CCC2CCCC2)[C@]13C(=O)O | 0.9 (≈ 2.06 µM) | > 15 | < 0.06 | 0.125 (≈ 0.286 µM) | 
CC(C)C1=CC2CC3(C=O)C4CC[C@@H](C)C4CC2(CCOC(=O)c2cnc(O)nc2O)C13C(=O)O (stereo partly drawn) |  |  | > 128 | > 128 | 
CC(C)C1=CC2CC3(C=O)C4CC[C@@H](C)C4CC2(CCOC(=O)c2cc[n+]([O-])cc2)C13C(=O)O (stereo partly drawn) |  |  | > 128 | > 128 | 
